# Data: patent US11592438B2, “Device and method for force phenotyping of cells for high-throughput screening and analysis” (THE REGENTS OF THE UNIVERSITY OF CALIFORNIA, priority 2014, dated 2023)
# No end group written: not given here.
# Legend:
# [1] = test system: primary human airway smooth muscle cells; assay: Pattern contraction / force generation screening of airway smooth muscle cells in 96 well plate; assay type: cell-based; conditions: for contraction of ASM cells (pattern deflection): ASM cells exposed to the compound
# Description: The image processing software 36 identifies all instances of a given molecular pattern 16 in an image stack and determines how many cells (e.g., 0, 1, or 2+) are adhered to each pattern 16 based on images of those cells 11 with stained nuclei. A MATLAB script opens the image files and pairs the stained nuclei images (e.g., DAPI images) with the fluorescent images of the patterns 16 (e.g., FITC images). The image processing software 36 calculates characteristic pixel length(s) of a given pattern 16 for the cases of no cells adhered and one (1) cell adhered. The ‘FITC’ images may be linearly scaled up with, for example, the MATLAB function ‘imresize’ to improve resolution of these measurements. For those patterns with zero cells adhered thereto, the center of each pattern 16 may be determined using binary center-of-mass calculations. For those patterns 16 with one (1) cell adhered thereto, a series of binary dilation and erosion operations, followed by a binary center-of-mass calculation on patterns is performed. The erosion/dilation procedure is used to remove the potential asymmetry in the pattern 16 arising from cell-induced deformations that would otherwise impact the location of the center of mass. Patterns 16 with two or more nuclei are not analyzed. For each processed pattern 16 (those that are crosses or “X” shaped), the diagonal distance in pixels is measured between the calculated center and the bright edge of the pattern 16 in each direction as illustrated in FIG. 10. […] These measurements are stored, converted to microns based on the magnification used (typically 10×). These lengths are normalized to the median of those measured in patterns 16 with no cells (nominally 0 pixel deformations which is used as a control) and a relative distribution plot for patterns with one (1) cell is generated (see FIG. 8). Cropped images of each pattern 16 screened by the image processing software 36 in a given location and the images of the corresponding cell nuclei on those patterns 16 are saved and may be reviewed if an execution error is suspected. FIG. 8 illustrates examples of cropped DAPI and FITC images.
# FIGS. 6A and 6B illustrate another embodiment of the invention. In this embodiment, a substrate 40 such as a plate having apertures 42 formed therein (non-tapered) is adhered to the layer 12 such that individual wells 44 are formed over the surface of the layer 12 with each well 44 containing a plurality of fluorescent patterns 16. […]
# These patterns 16 are then used as the controls. For example, similarly shaped patterns with no cells 11 thereon may have their respective dimensions measured and a baseline established that is representative of no deflection in the pattern 16. […]
# HeLa cells = assay: Dose-response force phenotyping of HeLa cells in well-based embodiment; assay type: cell-based, human; conditions: increased concentration, FIG. 12A
# Description: The image processing software 36 identifies all instances of a given molecular pattern 16 in an image stack and determines how many cells (e.g., 0, 1, or 2+) are adhered to each pattern 16 based on images of those cells 11 with stained nuclei. A MATLAB script opens the image files and pairs the stained nuclei images (e.g., DAPI images) with the fluorescent images of the patterns 16 (e.g., FITC images). The image processing software 36 calculates characteristic pixel length(s) of a given pattern 16 for the cases of no cells adhered and one (1) cell adhered. The ‘FITC’ images may be linearly scaled up with, for example, the MATLAB function ‘imresize’ to improve resolution of these measurements. For those patterns with zero cells adhered thereto, the center of each pattern 16 may be determined using binary center-of-mass calculations. […] Patterns 16 with two or more nuclei are not analyzed. For each processed pattern 16 (those that are crosses or “X” shaped), the diagonal distance in pixels is measured between the calculated center and the bright edge of the pattern 16 in each direction as illustrated in FIG. 10. […] These lengths are normalized to the median of those measured in patterns 16 with no cells (nominally 0 pixel deformations which is used as a control) and a relative distribution plot for patterns with one (1) cell is generated (see FIG. 8). […]
molecule,measurement,setting,value
O=S(=O)(c1cccc2c(I)cccc12)N1CCCNCC1 [ML-7],relaxation of smooth muscle contraction (reduction in deflection amount),"[1]; added after contraction by acetylcholine, enodthelin-1 or histamine, FIG. 11A",shown to relax smooth muscle contraction
CC(C)(C)NCC(O)c1ccc(O)c(CO)c1 (centres unmarked) [albuterol],relaxation of ASM cells,"[1]; added after contraction in response to histamine, FIG. 11B",relaxation
Cc1ccc2c(c1)C(=O)C1(O)CCN(c3ccccc3)C1=N2 (centres unmarked) [blebbistatin],deflection as function of concentration,HeLa cells,less deflection
NCCc1c[nH]cn1 [histamine],contraction of ASM cells (pattern deflection),[1]; FIG. 11A,contraction
"enodthelin-1 (CSCSSLMDKECVYFCHLDIIW; ends and bridges not checked; cysteine pairing not given here; UniProt P05305 53-73, looked up) [contractile stimulus for ASM cells]",contraction of ASM cells (pattern deflection),[1]; FIG. 11A,contraction
